Test results reported in US10479814B2, “Adenosine receptor activation reagent and the uses of thereof” (Zhejiang Subtropical Crops Research Institute, priority 2014, dated 2019).

Assays:
[1] = test system: pentylenetetrazole induced convulsion; assay: pentylenetetrazole induced convulsion in mouse; type: in vivo; conditions: antagonist ip 10 min before HEA 40 mg/kg, DPCPX 2 mg/kg, ZM241385 1 and 5 mg/kg
Protocol: Male ICR mouse, 18˜22 g; purchased from Animal Experiment Center of Wenzhou Medical University. Before experiment, animals were adapted to environment for at least 5 days. Kept at 25 °C, food and water were freely fed. Based on the weight, the healthy male ICR mice were randomly divided into control group (1% DMSO, ip), model group, CCPA group (0.1 mg·kg^−1, ip), HEA group (15 mg/kg, 40 mg/kg, 60 mg/kg), DPCPX group (2 mg·kg^−1, ip), ZM241385 group (1 mg·kg^−1, 5 mg·kg^−1, ip), DPCPX+HEA (2 mg·kg^−1+40 mg/kg, ip) group and ZM241385+HEA (1 mg·kg^−1+40 mg/kg, 5 mg·kg^−1+40 mg/kg ip) group.
The survival time and mortality after convulsion were respectively recorded for each group.

A1 receptor = conditions: cited from earlier work; for selectivity to the A1 receptor (in words): existing A1 agonists; for A1 selectivity: according to document record (Jacobson 1992)

Row | SMILES | effect of antagonist on the anti-convulsion action of the HEA [1] | effect of antagonist on the anti-convulsion action of the HEA ([1]; listed as Zm241385) | selectivity to the A1 receptor (in words) (A1 receptor) | A1 selectivity (A1 receptor)
1 | Nc1nc(NCCc2ccc(O)cc2)nc2nc(-c3ccco3)nn12 [ZM241385] | no significant effect on the anti-convulsion effect of the HEA | no significant effect on the anti-convulsion action of the HEA |  | 
2 | OC[C@H]1O[C@@H](n2cnc3c(NC4CCCCC4)ncnc32)[C@H](O)[C@@H]1O [CHA] |  |  | strong selectivity to the A1 receptor | 
3 | OC[C@H]1O[C@@H](n2cnc3c(NC4CCCC4)nc(Cl)nc32)[C@H](O)[C@@H]1O [CCPA] |  |  | strong selectivity to the A1 receptor | 1500 fold
4 | OC[C@H]1O[C@@H](n2cnc3c(N[C@H]4CC5CCC4C5)ncnc32)[C@H](O)[C@@H]1O (stereo partly shown) [S-ENBA] |  |  |  | up to 4700 fold
5 | OC[C@H]1O[C@@H](n2cnc3c(NC4CCCC4)ncnc32)[C@H](O)[C@@H]1O [CPA] |  |  | strong selectivity to the A1 receptor | 
